Source: US6566081B1, “Methods of identifying a compound which modulates the non-transcriptional non-map-kinase induced effects of steroid hormones” (The Brigham and Women's Hospital, Inc., priority 1999, dated 2003)
Values joined by “and” are separate entries in the source; they are usually repeats but may differ in a detail not shown here. Identical values can stand only once. “Also recorded” adds a separate entry of the source.

How the values were obtained:
eNOS = eNOS activity assay (conversion of [3H]-arginine to [3H]-citrulline) in treated human endothelial cells; assay type: cell-based; conditions: for time after stimulation at which PI3-kinase/eNOS activity is stimulated / effect on E2-stimulated eNOS activity, later phase (≥15 min) or 30 min: E2 10 nM; for time after stimulation at which PI3-kinase/eNOS activity is stimulated / stimulation of eNOS activity by the substance alone: insulin 100 nM; for stimulation of eNOS activity by the substance alone: E2/αE2 10 nM; for effect on E2-stimulated eNOS activity, later phase (≥15 min) or 30 min: wortmannin 30 nM, ICI 10 μM, genistein 50 μM, PD98059 5 μM, actinomycin D 2 h pretreatment; for effect on basal eNOS activity, substance alone: no E2
Procedure: Fetal bovine serum was deprived of estrogen by charcoal-stripping. Once grown to confluence the cells were replated on 1.5% gelatin-coated flasks at 20000 cells/cm^2. […] Cell number was assessed by direct cell counting of adherent cells, after trypsin detachment, in a Neubauer hemocytometer (VWR Scientifics). The percentage of cells excluding Trypan Blue after staining with the compound was taken as a measure of cell viability.
Endothelial cells were grown to confluence on 55 cm^2 culture dishes, treated according to the indicated conditions, and harvested in ice-cold PBS containing 1 mM EDTA. The cell lysates were pelleted in a microfuge (2 minutes, 13000 rpm, 4° C.) and subsequently homogenized in a buffer containing 25 mM Tris-HCl, pH 7.4, 1 mM EDTA, 1 mM EGTA. eNOS activity was determined by measuring the conversion of [^3H]-arginine to [^3H]-citrulline. Rat cerebellum extracts, containing elevated amounts of neuronal NOS, were used as positive controls, while endothelial cell extracts incubated in the presence of the competitive eNOS inhibitor L-NAME (1 mM) served as negative controls.
Human and bovine aortic endothelial cells were harvested enzymatically with Type IA collagenase (1 mg/mL).

NO release = assay: Nitrite assay (NO accumulation from endothelial cells); assay type: cell-based, human; conditions: for stimulation of NO release / production (nitrite accumulation): 30 min, E2/αE2 10 nM, insulin 100 nM, acetylcholine; for effect on E2-induced NO release / production: E2 10 nM 30 min, ICI 10 μM, wortmannin 30 nM
Procedure: NO accumulation from serum-starved endothelial cells was determined by a modified nitrite assay using 2, 3 diaminonaphtalene as described previously.^33 Fluorescence of 1-(H)-naphtotriazole was measured with excitation and emission wavelengths of 365 and 450 nm, respectively. Standard curves were constructed with known amounts of sodium nitrite. Nonspecific fluorescence was determined in the presence of LNMA (3 mM).

Akt/PKB = assay: Akt kinase assay (immunoprecipitated Akt, GSK-3 peptide); assay type: cell-based, human; conditions: for stimulation of Akt kinase activity (words): E2/αE2 10 nM, insulin 100 nM
Procedure: Immunoprecipitated Akt kinase activity was assayed on endothelial cell lysates by using the Aktl/PKBα immunoprecipitation kinase assay kit (Upstate Biotechnology, Lake Placid, N.Y.). Endothelial cells were starved in phenol red-free199 medium with 0.4% estrogen-deprived FBS, treated, washed, and then harvested in ice-cold Buffer A (50 mM Tris-HCl, pH 7.5, 1 mM EDTA, 1 mM EGTA, […] Na3VO4, 0.1% (v/v) 2-mercaptoethanol, 1% Triton X-100, 50 mM sodium fluoride, 5 mM sodium pyrophosphate, 10 mM sodium glycerophosphate, 0.1 mM PMSF, 1 μg/mL of aprotinin, pepstatin, leupeptin and 1 μM microcystin). The cleared cell lysates were incubated for 1 hour at 4° C. with 4 μg/tube of anit-Akt1/PKBα PH domain immunoaffinity purified sheep IgG, after which 50 μL of a 1:1 (v/v) protein G-agarose slurry was added for an additional hour of incubation at 4° C. After centrifugation, the immunoprecipitates were washed three times with Buffer A containing 0.5 M NaCl, then two times with Buffer B (50 mM Tris-HCl, pH 7.5, 0.03% (w/v) Brij-35, 0.1 mM EGTA, 0.1% (v/v) 2-mercaptoethanol), and finally twice with 1×Assay Buffer (20 mM MOPS, pH 7.2, 25 mM β-glycerol phosphate, 5 mM EGTA, 1 mM Na3VO4, 1 mM DTT).
The immunoprecipitates were resuspended in 10 μL of ice-cold 1×Assay Buffer, and were sequentially added: 10 μL of 40 μM PKA inhibitor peptide ([…]-NH2—corresponding to residues 7-23 of human PKA inhibitor), 10 μL of Akt/PKB specific substrate peptide (100 μM) (RPRAATF—corresponding to the phosphorylation site of glycogen synthase kinase-3, specifically targeted by Akt/PKB, but not by other protein kinases such as Rsk-2 and p70 S6 kinase), and 10 μL of [γ-^32P]ATP stock solution (1×Assay Buffer with 500 μM ATP, 75 mM MgCl2, containing 1 μCi/μL [γ^32-P]ATP, 3000 Ci/mmol). The reaction was incubated at 37° C. for 30 minutes, after which 40 μL of the supernatant was mixed with 20 μL of 40% TCA and incubated for 5 minutes at room temperature. 40 μL of each final fraction were spotted onto the center of a 2 cm×2 cm P81 phosphocellulose paper. The assay squares were washed three times with 0.75% phosphoric acid for five minutes at room temperature, then once with acetone. The squares were then transferred to vials containing a liquid scintillation cocktail and read in a scintillation counter. Blank reaction for the detection of the unspecific background were performed by substituting the cell lysate with Buffer A at the beginning of the procedure, and aspecific endogenous phosphorylation of proteins in the sample extract was estimated by substituting in some samples 1×Assay Buffer for the Akt/PKB specific substrate peptide.

Compound: 17β-estradiol [E2]
- lowest concentration increasing eNOS activity (eNOS; 30 min treatment of HSVEC): 10 pM
- EC50 (eNOS; E2 10 pM-1 μM, 30 min, human endothelial cells, read-out: EC50 value for increase in eNOS activity): ~0.1 nM and 0.1 nM
- time after stimulation at which PI3-kinase/eNOS activity is stimulated (eNOS): > 15 min
- stimulation of eNOS activity by the substance alone (eNOS; 30 min): increases eNOS activity; also recorded: biphasic increase in eNOS activity; also recorded: marked increase
- time of maximum effect on PI3-kinase and eNOS activity (eNOS; after stimulation): 15 to 20 min
- stimulation of NO release / production (nitrite accumulation) (NO release): increases NO release
- stimulation of Akt kinase activity (words) (Akt/PKB; 20 min): activated; also recorded: stimulated
- increase in Akt kinase activity after 10 min (Akt/PKB; E2 stimulation, 10 min): 1.5 fold
- increase in Akt kinase activity after 20 min (Akt/PKB; E2 stimulation, 20 min): 2.3 fold

Compound: C[C@]12CC[C@@H]3c4ccc(O)cc4C[C@@H](CCCCCCCCC[S+]([O-])CCCC(F)(F)C(F)(F)F)[C@H]3[C@@H]1CC[C@@H]2O (stereo partly drawn) [ICI 187,780]
- effect on E2-stimulated eNOS activity, later phase (≥15 min) or 30 min (eNOS): complete blockade; also recorded: completely blocked
- effect on E2-stimulated eNOS activity, later phase (≥15 min) or 30 min (eNOS; listed as ICI 182,780): completely blocked
- effect on basal eNOS activity, substance alone (eNOS): neither wortmannin nor ICI 187,780 alone affected basal eNOS activity
- effect on basal eNOS activity, substance alone (eNOS; listed as ICI 182,780): did not produce any effect
- effect on E2-induced NO release / production (NO release): completely blocked
- effect on E2-induced NO release / production (NO release; listed as ICI 182,780): prevent
- effect on acetylcholine-induced NO accumulation (NO release; acetylcholine 30 min): not influenced; also recorded: not affected
- effect on E2-stimulated Akt kinase activity (Akt/PKB; ICI 10 μM, wortmannin 30 nM): nearly completely abolished; also recorded: almost completely inhibited

Compound: insulin: known activator of the PI3-kinase/Akt pathway
- time after stimulation at which PI3-kinase/eNOS activity is stimulated (eNOS): ≤ 2 min
- stimulation of eNOS activity by the substance alone (eNOS; 30 min): marked increase; also recorded: able to stimulate
- stimulation of eNOS activity by the substance alone (eNOS; 30 min, listed as Insulin): activates eNOS activity
- stimulation of NO release / production (nitrite accumulation) (NO release): able to stimulate
- stimulation of NO release / production (nitrite accumulation) (NO release; listed as Insulin): activates nitrite release
- stimulation of Akt kinase activity (words) (Akt/PKB; 20 min): substantial increase
- stimulation of Akt kinase activity (words) (Akt/PKB; 20 min, listed as Insulin): marked activation
